# Results: US20260262643A1, “HERBICIDAL BENZOXAZINES” (FMC CORPORATION, priority 2022, published 2026)
# Tests used:
# wheat [1] = assay: Test A postemergence; type: in vivo, Triticum aestivum; settings: postemergence, 10 days; for Wheat plant response rating: 125 g ai/ha, 0 to 100 scale, 0 no effect, 100 complete control; for Plant response rating, Wheat: 500 g ai/ha, visual injury, 0 to 100 scale (0 no effect, 100 complete control)
# Procedure, shortened: (§1)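 Seeds in loam–sand blend received a directed preemergence soil spray of compound in non-phytotoxic solvent with surfactant; postemergence plants (2–10 cm, one- to two-leaf stage) were sprayed with the same formulation. After 10 days in greenhouse, injury was rated visually versus untreated controls, 0 (no effect) to 100 (complete control).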
# galium = assay: Test A postemergence; type: in vivo, Galium aparine; settings: postemergence, 10 days; for Galium plant response rating: 125 g ai/ha, 0 to 100 scale, 0 no effect, 100 complete control; for Plant response rating, Galium: 500 g ai/ha, visual injury, 0 to 100 scale (0 no effect, 100 complete control)
# Procedure, shortened: as §1
# kochia [2] = assay: Test A postemergence; type: in vivo, Bassia scoparia; settings: postemergence, 10 days; for Kochia plant response rating: 125 g ai/ha, 0 to 100 scale, 0 no effect, 100 complete control; for Plant response rating, Kochia: 500 g ai/ha, visual injury, 0 to 100 scale (0 no effect, 100 complete control)
# Procedure, shortened: as §1
# barnyardgrass [3] = assay: Test B flooded paddy test; type: in vivo, Echinochloa crus-galli; settings: 250 g ai/ha, Flood, 13 days, 0 to 100 scale (0 no effect, 100 complete control)
# Procedure, shortened: (§2)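 Compound is introduced into paddy water covering soil by 3 cm, treating plants that have reached two leaves. Pots are kept flooded at that depth under greenhouse conditions. Assessment at 13 days gives a 0–100 visual control score.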
# pigweed, palmer [4] = assay: Test A postemergence; type: in vivo, Amaranthus palmeri; settings: postemergence, 10 days; for Pigweed, Palmer plant response rating: 125 g ai/ha, 0 to 100 scale, 0 no effect, 100 complete control; for Plant response rating, Pigweed, Palmer: 500 g ai/ha, visual injury, 0 to 100 scale (0 no effect, 100 complete control)
# Procedure, shortened: as §1
# ducksalad = assay: Test B flooded paddy test; type: in vivo, Heteranthera limosa; settings: 250 g ai/ha, Flood, 13 days, 0 to 100 scale (0 no effect, 100 complete control)
# Procedure, shortened: as §2
# ragweed [5] = assay: Test A preemergence; type: in vivo, Ambrosia artemisiifolia; settings: 0 to 100 scale
# Procedure, shortened: as §1
# blackgrass [6] = assay: Test A preemergence; type: in vivo, Alopecurus myosuroides; settings: 0 to 100 scale
# Procedure, shortened: as §1
# soybean [7] = assay: Test A preemergence; type: in vivo, Glycine max; settings: 0 to 100 scale
# Procedure, shortened: as §1
# rice = assay: Test B flooded paddy test; type: in vivo, Oryza sativa; settings: 250 g ai/ha, Flood, 13 days, 0 to 100 scale (0 no effect, 100 complete control)
# Procedure, shortened: as §2
# wheat [8] = assay: Test A preemergence; type: in vivo, Triticum aestivum; settings: 0 to 100 scale
# Procedure, shortened: as §1
# pigweed, palmer [9] = assay: Test A preemergence; type: in vivo, Amaranthus palmeri; settings: 0 to 100 scale
# Procedure, shortened: as §1
# kochia [10] = assay: Test A preemergence; type: in vivo, Bassia scoparia; settings: 0 to 100 scale
# Procedure, shortened: as §1
# ryegrass, Italian [11] = assay: Test A postemergence; type: in vivo, Lolium multiflorum; settings: postemergence, 10 days; for Ryegrass, Italian plant response rating: 125 g ai/ha, 0 to 100 scale, 0 no effect, 100 complete control; for Plant response rating, Ryegrass, Italian: 500 g ai/ha, visual injury, 0 to 100 scale (0 no effect, 100 complete control)
# Procedure, shortened: as §1
# horseweed = assay: Test A postemergence; type: in vivo, Erigeron canadensis; settings: postemergence, 10 days; for Horseweed plant response rating: 125 g ai/ha, 0 to 100 scale, 0 no effect, 100 complete control; for Plant response rating, Horseweed: 500 g ai/ha, visual injury, 0 to 100 scale (0 no effect, 100 complete control)
# Procedure, shortened: as §1
# ragweed [12] = assay: Test A postemergence; type: in vivo, Ambrosia artemisiifolia; settings: postemergence, 10 days; for Ragweed plant response rating: 125 g ai/ha, 0 to 100 scale, 0 no effect, 100 complete control; for Plant response rating, Ragweed: 500 g ai/ha, visual injury, 0 to 100 scale (0 no effect, 100 complete control)
# Procedure, shortened: as §1
# sedge, umbrella = assay: Test B flooded paddy test; type: in vivo, Cyperus difformis; settings: 250 g ai/ha, Flood, 13 days, 0 to 100 scale (0 no effect, 100 complete control)
# Procedure, shortened: as §2
# oat, wild [13] = assay: Test A preemergence; type: in vivo, Avena fatua; settings: 0 to 100 scale
# Procedure, shortened: as §1
# barnyardgrass [14] = assay: Test A preemergence; type: in vivo, Echinochloa crusgalli; settings: visual injury after 10 days, 0 to 100 scale, 0 is no effect, 100 is complete control
# Procedure, shortened: as §1
# foxtail, giant [15] = assay: Test A preemergence; type: in vivo, Setaria faberi; settings: 0 to 100 scale
# Procedure, shortened: as §1
# ryegrass, Italian [16] = assay: Test A preemergence; type: in vivo, Lolium multiflorum; settings: 0 to 100 scale
# Procedure, shortened: as §1
# blackgrass [17] = assay: Test A postemergence; type: in vivo, Alopecurus myosuroides; settings: postemergence, 10 days; for Blackgrass plant response rating: 125 g ai/ha, 0 to 100 scale, 0 no effect, 100 complete control; for Plant response rating, Blackgrass: 500 g ai/ha, visual injury, 0 to 100 scale (0 no effect, 100 complete control)
# Procedure, shortened: as §1
# oat, wild [18] = assay: Test A postemergence; type: in vivo, Avena fatua; settings: postemergence, 10 days; for Oat, Wild plant response rating: 125 g ai/ha, 0 to 100 scale, 0 no effect, 100 complete control; for Plant response rating, Oat, Wild: 500 g ai/ha, visual injury, 0 to 100 scale (0 no effect, 100 complete control)
# Procedure, shortened: as §1
# soybean [19] = assay: Test A postemergence; type: in vivo, Glycine max; settings: postemergence, 10 days; for Soybean plant response rating: 125 g ai/ha, 0 to 100 scale, 0 no effect, 100 complete control; for Plant response rating, Soybean: 500 g ai/ha, visual injury, 0 to 100 scale (0 no effect, 100 complete control)
# Procedure, shortened: as §1
# corn [20] = assay: Test A preemergence; type: in vivo, Zea mays; settings: 0 to 100 scale
# Procedure, shortened: as §1
# corn [21] = assay: Test A postemergence; type: in vivo, Zea mays; settings: postemergence, 10 days; for Corn plant response rating: 125 g ai/ha, 0 to 100 scale, 0 no effect, 100 complete control; for Plant response rating, Corn: 500 g ai/ha, visual injury, 0 to 100 scale (0 no effect, 100 complete control)
# Procedure, shortened: as §1
# barnyardgrass [22] = assay: Test A postemergence; type: in vivo, Echinochloa crusgalli; settings: postemergence, 10 days; for Barnyardgrass plant response rating: 125 g ai/ha, 0 to 100 scale, 0 no effect, 100 complete control; for Plant response rating, Barnyardgrass: 500 g ai/ha, visual injury, 0 to 100 scale (0 no effect, 100 complete control)
# Procedure, shortened: as §1
# foxtail, giant [23] = assay: Test A postemergence; type: in vivo, Setaria faberi; settings: postemergence, 10 days; for Foxtail, Giant plant response rating: 125 g ai/ha, 0 to 100 scale, 0 no effect, 100 complete control; for Plant response rating, Foxtail, Giant: 500 g ai/ha, visual injury, 0 to 100 scale (0 no effect, 100 complete control)
# Procedure, shortened: as §1
# [24] = 125 g ai/ha, visual injury after 10 days, 0 is no effect, 100 is complete control
# [25] = 500 g ai/ha, visual injury after 10 days, 0 is no effect, 100 is complete control
smiles,measurement,setting,value
CC(C)Cc1ncn(-c2cccc(C(=O)N3C[C@H](C)Oc4c(Cl)cccc43)c2)n1 [Compound 112],Wheat plant response rating,wheat [1],10
same,"Plant response rating, Wheat",wheat [1],20
same,Galium plant response rating,galium,90
same,"Plant response rating, Galium",galium,100
same,Kochia plant response rating,kochia [2],70
same,"Plant response rating, Kochia",kochia [2],90
same,"Plant response rating, Barnyardgrass",barnyardgrass [3],0
same,"Pigweed, Palmer plant response rating","pigweed, palmer [4]",50
same,"Plant response rating, Pigweed, Palmer","pigweed, palmer [4]",90
same,"Plant response rating, Ducksalad",ducksalad,0
same,"Plant response rating, Ragweed",ragweed [5]; [24],0
same,"Plant response rating, Ragweed",ragweed [5]; [25],40
same,"Plant response rating, Blackgrass",blackgrass [6]; [24],20
same,"Plant response rating, Blackgrass",blackgrass [6]; [25],80
same,"Plant response rating, Soybean",soybean [7]; [24],0
same,"Plant response rating, Soybean",soybean [7]; [25],50
same,"Plant response rating, Rice",rice,0
same,"Plant response rating, Wheat",wheat [8]; [24],20
same,"Plant response rating, Wheat",wheat [8]; [25],40
same,"Plant response rating, Pigweed, Palmer","pigweed, palmer [9]; [24]",50
same,"Plant response rating, Pigweed, Palmer","pigweed, palmer [9]; [25]",100
same,"Plant response rating, Kochia",kochia [10]; [24],0
same,"Plant response rating, Kochia",kochia [10]; [25],60
same,"Ryegrass, Italian plant response rating","ryegrass, Italian [11]",10
same,"Plant response rating, Ryegrass, Italian","ryegrass, Italian [11]",60
same,Horseweed plant response rating,horseweed,0
same,"Plant response rating, Horseweed",horseweed,0
same,Ragweed plant response rating,ragweed [12],0
same,"Plant response rating, Ragweed",ragweed [12],0
same,"Plant response rating, Sedge, Umbrella","sedge, umbrella",0
same,"Plant response rating, Oat, Wild","oat, wild [13]; [24]",0
same,"Plant response rating, Oat, Wild","oat, wild [13]; [25]",20
same,"Plant response rating, Barnyardgrass",barnyardgrass [14]; 125 g ai/ha,40
same,"Plant response rating, Barnyardgrass",barnyardgrass [14]; 500 g ai/ha,100
same,"Plant response rating, Foxtail, Giant","foxtail, giant [15]; [24]",50
same,"Plant response rating, Foxtail, Giant","foxtail, giant [15]; [25]",90
same,"Plant response rating, Ryegrass, Italian","ryegrass, Italian [16]; [24]",40
same,"Plant response rating, Ryegrass, Italian","ryegrass, Italian [16]; [25]",90
same,Blackgrass plant response rating,blackgrass [17],0
same,"Plant response rating, Blackgrass",blackgrass [17],60
same,"Oat, Wild plant response rating","oat, wild [18]",10
same,"Plant response rating, Oat, Wild","oat, wild [18]",30
same,Soybean plant response rating,soybean [19],90
same,"Plant response rating, Soybean",soybean [19],100
same,"Plant response rating, Corn",corn [20]; [24],0
same,"Plant response rating, Corn",corn [20]; [25],0
same,Corn plant response rating,corn [21],20
same,"Plant response rating, Corn",corn [21],40
same,Barnyardgrass plant response rating,barnyardgrass [22],10
same,"Plant response rating, Barnyardgrass",barnyardgrass [22],40
same,"Foxtail, Giant plant response rating","foxtail, giant [23]",20
same,"Plant response rating, Foxtail, Giant","foxtail, giant [23]",70
COc1cc(C(=O)N2C[C@H](C)Oc3c(Cl)cccc32)cc(-n2cncn2)c1 [Compound 138],Wheat plant response rating,wheat [1],40
same,"Plant response rating, Wheat",wheat [1],80
same,Galium plant response rating,galium,80
same,"Plant response rating, Galium",galium,100
same,Kochia plant response rating,kochia [2],80
same,"Plant response rating, Kochia",kochia [2],80
same,"Plant response rating, Barnyardgrass",barnyardgrass [3],35
same,"Pigweed, Palmer plant response rating","pigweed, palmer [4]",30
same,"Plant response rating, Pigweed, Palmer","pigweed, palmer [4]",90
same,"Plant response rating, Ducksalad",ducksalad,70
same,"Plant response rating, Ragweed",ragweed [5]; 125 g ai/ha,0
same,"Plant response rating, Ragweed",ragweed [5]; [25],0
same,"Plant response rating, Blackgrass",blackgrass [6]; 125 g ai/ha,80
same,"Plant response rating, Blackgrass",blackgrass [6]; [25],90
same,"Plant response rating, Soybean",soybean [7]; 125 g ai/ha,70
same,"Plant response rating, Soybean",soybean [7]; [25],100
same,"Plant response rating, Rice",rice,35
same,"Plant response rating, Wheat",wheat [8]; 125 g ai/ha,40
same,"Plant response rating, Wheat",wheat [8]; [25],90
same,"Plant response rating, Pigweed, Palmer","pigweed, palmer [9]; 125 g ai/ha",90
same,"Plant response rating, Pigweed, Palmer","pigweed, palmer [9]; [25]",100
same,"Plant response rating, Kochia",kochia [10]; 125 g ai/ha,0
same,"Plant response rating, Kochia",kochia [10]; [25],50
same,"Ryegrass, Italian plant response rating","ryegrass, Italian [11]",70
same,"Plant response rating, Ryegrass, Italian","ryegrass, Italian [11]",100
same,Horseweed plant response rating,horseweed,0
same,"Plant response rating, Horseweed",horseweed,0
same,Ragweed plant response rating,ragweed [12],0
same,"Plant response rating, Ragweed",ragweed [12],40
same,"Plant response rating, Sedge, Umbrella","sedge, umbrella",75
same,"Plant response rating, Oat, Wild","oat, wild [13]; 125 g ai/ha",40
same,"Plant response rating, Oat, Wild","oat, wild [13]; [25]",90
same,"Plant response rating, Barnyardgrass",barnyardgrass [14]; 125 g ai/ha,90
same,"Plant response rating, Barnyardgrass",barnyardgrass [14]; 500 g ai/ha,100
same,"Plant response rating, Foxtail, Giant","foxtail, giant [15]; 125 g ai/ha",100
same,"Plant response rating, Foxtail, Giant","foxtail, giant [15]; [25]",100
same,"Plant response rating, Ryegrass, Italian","ryegrass, Italian [16]; 125 g ai/ha",80
same,"Plant response rating, Ryegrass, Italian","ryegrass, Italian [16]; [25]",100
same,Blackgrass plant response rating,blackgrass [17],80
same,"Plant response rating, Blackgrass",blackgrass [17],90
same,"Oat, Wild plant response rating","oat, wild [18]",50
same,"Plant response rating, Oat, Wild","oat, wild [18]",80
same,Soybean plant response rating,soybean [19],100
same,"Plant response rating, Soybean",soybean [19],100
same,"Plant response rating, Corn",corn [20]; 125 g ai/ha,10
same,"Plant response rating, Corn",corn [20]; [25],10
same,Corn plant response rating,corn [21],80
same,"Plant response rating, Corn",corn [21],90
same,Barnyardgrass plant response rating,barnyardgrass [22],60
same,"Plant response rating, Barnyardgrass",barnyardgrass [22],80
same,"Foxtail, Giant plant response rating","foxtail, giant [23]",90
same,"Plant response rating, Foxtail, Giant","foxtail, giant [23]",90
